Experimental data as given in patent US11040031B2, “Pyrazole derivatives as MALT1 inhibitors” (Janssen Pharmaceutica NV, priority 2018, dated 2021).

Target: T1, full-length MALT1 protein (Strep-MALT1(1-824)-His) (Homo sapiens, UniProt Q9UDY8)
T1 sequence (Q9UDY8 1-824): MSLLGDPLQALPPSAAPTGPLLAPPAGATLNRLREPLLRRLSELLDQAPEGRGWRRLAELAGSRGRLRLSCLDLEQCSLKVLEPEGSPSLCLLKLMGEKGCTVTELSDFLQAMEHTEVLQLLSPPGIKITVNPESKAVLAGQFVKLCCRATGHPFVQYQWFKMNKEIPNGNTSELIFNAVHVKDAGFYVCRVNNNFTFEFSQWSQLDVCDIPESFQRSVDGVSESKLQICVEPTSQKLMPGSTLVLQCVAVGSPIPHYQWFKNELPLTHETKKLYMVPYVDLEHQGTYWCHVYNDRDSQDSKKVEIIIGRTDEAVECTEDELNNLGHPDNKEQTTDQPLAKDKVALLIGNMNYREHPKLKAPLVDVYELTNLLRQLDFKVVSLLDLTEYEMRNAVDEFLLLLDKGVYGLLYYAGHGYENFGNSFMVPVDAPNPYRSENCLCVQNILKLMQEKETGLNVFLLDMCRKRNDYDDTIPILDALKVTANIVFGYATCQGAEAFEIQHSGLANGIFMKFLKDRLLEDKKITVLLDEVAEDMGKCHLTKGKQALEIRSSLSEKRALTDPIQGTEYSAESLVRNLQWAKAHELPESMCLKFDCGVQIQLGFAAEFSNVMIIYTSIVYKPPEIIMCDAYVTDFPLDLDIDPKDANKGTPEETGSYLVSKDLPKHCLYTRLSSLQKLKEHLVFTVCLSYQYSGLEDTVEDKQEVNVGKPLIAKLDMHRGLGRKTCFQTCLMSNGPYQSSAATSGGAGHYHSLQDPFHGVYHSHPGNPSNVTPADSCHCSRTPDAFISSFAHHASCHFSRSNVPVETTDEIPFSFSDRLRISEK
Experiment: biochemical
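Further: fluorogenic LRSR-AMC substrate cleavage by MALT1, 50 min compound preincubation then 4 h reaction at RT, 11-point dilution from 30 µM, scaled between enzyme-free and untreated enzyme controls.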

IC50 [nM] | Structure (SMILES)
331 | Cc1ccc(-n2ncc(C(=O)Nc3cnc(-n4nccn4)c(Cl)c3)c2C(F)(F)F)nc1N [Cpd 184, 1-(6-amino-5-methylpyridin-2-yl)-N-(5-chloro-6-(2H-1,2,3-triazol-2-yl)pyridin-3-yl)-5-(trifluoromethyl)-1H-pyrazole-4-carboxamide]
832 | O=C(Nc1cnc(-n2nccn2)c(Cl)c1)c1cnn(-c2ccncc2F)c1C(F)(F)F [Cpd 6, N-(5-Chloro-6-(2H-1,2,3-triazol-2-yl)pyridin-3-yl)-1-(3-fluoropyridin-4-yl)-5-(trifluoromethyl)-1H-pyrazole-4-carboxamide]
427 | N#Cc1cc(NC(=O)c2cnn(-c3ccc(F)c(Cl)c3)c2C(F)(F)F)cnc1-n1nccn1 [Cpd 109, 1-(3-chloro-4-fluorophenyl)-N-(5-cyano-6-(2H-1,2,3-triazol-2-yl)pyridin-3-yl)-5-(trifluoromethyl)-1H-pyrazole-4-carboxamide]
457 | O=C(Nc1cnc(-n2nccn2)c(Cl)c1)c1cnn(-c2c(Cl)cc(F)cc2Cl)c1C(F)(F)F [Cpd 93, N-(5-chloro-6-(2H-1,2,3-triazol-2-yl)pyridin-3-yl)-1-(2,6-dichloro-4-fluorophenyl)-5-(trifluoromethyl)-1H-pyrazole-4-carboxamide]
1320 | CNc1ccc(-n2ncc(C(=O)Nc3cnc(-n4nccn4)c(Cl)c3)c2C(F)(F)F)cn1 [Cpd 122, N-(5-chloro-6-(2H-1,2,3-triazol-2-yl)pyridin-3-yl)-1-(6-(methylamino)pyridin-3-yl)-5-(trifluoromethyl)-1H-pyrazole-4-carboxamide]
1200 | CNc1ccc(-n2ncc(C(=O)Nc3cnc(-n4nccn4)c(C#N)c3)c2C(F)(F)F)cn1 [Cpd 124, N-(5-cyano-6-(2H-1,2,3-triazol-2-yl)pyridin-3-yl)-1-(6-(methylamino)pyridin-3-yl)-5-(trifluoromethyl)-1H-pyrazole-4-carboxamide]
741 | Cc1nc(-n2ncc(C(=O)Nc3cnc(-n4nccn4)c(Cl)c3)c2C(F)(F)F)ccc1F [Cpd 161, N-(5-chloro-6-(2H-1,2,3-triazol-2-yl)pyridin-3-yl)-1-(5-fluoro-6-methylpyridin-2-yl)-5-(trifluoromethyl)-1H-pyrazole-4-carboxamide]
724 | Cc1cc(F)ncc1-n1ncc(C(=O)Nc2cnc(-n3nccn3)c(Cl)c2)c1C(F)(F)F [Cpd 87, N-(5-chloro-6-(2H-1,2,3-triazol-2-yl)pyridin-3-yl)-1-(6-fluoro-4-methylpyridin-3-yl)-5-(trifluoromethyl)-1H-pyrazole-4-carboxamide]
2040 | Cc1cnc([C@@H]2COCCO2)cc1-n1ncc(C(=O)Nc2cnc(-n3nccn3)c(Cl)c2)c1C(F)(F)F (single isomer, unassigned) [Cpd 206, (*R)-1-(2-(1,4-dioxan-2-yl)-5-methylpyridin-4-yl)-N-(5-chloro-6-(2H-1,2,3-triazol-2-yl)pyridin-3-yl)-5-(trifluoromethyl)-1H-pyrazole-4-carboxamide]
955 | Cc1cnc(Cl)cc1-n1ncc(C(=O)Nc2cnc(-n3nccn3)c(Cl)c2)c1C(F)(F)F [Cpd 154, 1-(2-chloro-5-methyl-4-pyridyl)-N-[5-chloro-6-(triazol-2-yl)-3-pyridyl]-5-(trifluoromethyl)pyrazole-4-carboxamide]
1910 | Cc1cnc([C@H]2COCCO2)cc1-n1ncc(C(=O)Nc2cnc(-n3nccn3)c(Cl)c2)c1C(F)(F)F (single isomer, unassigned) [Cpd 205, (*S)-1-(2-(1,4-dioxan-2-yl)-5-methylpyridin-4-yl)-N-(5-chloro-6-(2H-1,2,3-triazol-2-yl)pyridin-3-yl)-5-(trifluoromethyl)-1H-pyrazole-4-carboxamide]
832 | N#Cc1cc(NC(=O)c2cnn(-c3ccc(F)c(N4CC(O)C4)n3)c2C(F)(F)F)cnc1-n1nccn1 [Cpd 152, N-(5-cyano-6-(2H-1,2,3-triazol-2-yl)pyridin-3-yl)-1-(5-fluoro-6-(3-hydroxyazetidin-1-yl)pyridin-2-yl)-5-(trifluoromethyl)-1H-pyrazole-4-carboxamide]
182 | Cc1nccc(-n2ncc(C(=O)Nc3cnc(-n4nccn4)c(C#N)c3)c2C(F)(F)F)c1C [Cpd 42, N-(5-cyano-6-(2H-1,2,3-triazol-2-yl)pyridin-3-yl)-1-(2,3-dimethylpyridin-4-yl)-5-(trifluoromethyl)-1H-pyrazole-4-carboxamide]
2400 | O=C(Nc1cnc(-n2nccn2)c(Cl)c1)c1cnn(-c2ccc(F)c(N3CC(O)C3)n2)c1C(F)(F)F [Cpd 151, N-(5-chloro-6-(2H-1,2,3-triazol-2-yl)pyridin-3-yl)-1-(5-fluoro-6-(3-hydroxyazetidin-1-yl)pyridin-2-yl)-5-(trifluoromethyl)-1H-pyrazole-4-carboxamide]
447 | O=C(Nc1cnc(-n2nccn2)c(Cl)c1)c1cnn(-c2c(F)cc(F)cc2Cl)c1C(F)(F)F [Cpd 94, 1-(2-chloro-4,6-difluorophenyl)-N-(5-chloro-6-(2H-1,2,3-triazol-2-yl)pyridin-3-yl)-5-(trifluoromethyl)-1H-pyrazole-4-carboxamide]
1350 | O=C(Nc1cnc(-n2nccn2)c(Cl)c1)c1cnn(-c2cccnc2)c1C(F)(F)F [Cpd 12, N-(5-Chloro-6-(2H-1,2,3-triazol-2-yl)pyridin-3-yl)-1-(pyridin-3-yl)-5-(trifluoromethyl)-1H-pyrazole-4-carboxamide]
646 | O=C(Nc1cnc(-n2nccn2)c(Cl)c1)c1cnn(-c2ccc(F)c(F)c2F)c1C(F)(F)F [Cpd 89, N-(5-chloro-6-(2H-1,2,3-triazol-2-yl)pyridin-3-yl)-5-(trifluoromethyl)-1-(2,3,4-trifluorophenyl)-1H-pyrazole-4-carboxamide]
1000 | O=C(Nc1cnc(-n2nccn2)c(Cl)c1)c1cnn(-c2ccc(F)cc2C(F)(F)F)c1C(F)(F)F [Cpd 114, N-(5-chloro-6-(2H-1,2,3-triazol-2-yl)pyridin-3-yl)-1-(4-fluoro-2-(trifluoromethyl)phenyl)-5-(trifluoromethyl)-1H-pyrazole-4-carboxamide]
263 | N#Cc1cc(NC(=O)c2cnn(-c3cccc(N)n3)c2C(F)(F)F)cnc1-n1nccn1 [Cpd 134, 1-(6-aminopyridin-2-yl)-N-(5-cyano-6-(2H-1,2,3-triazol-2-yl)pyridin-3-yl)-5-(trifluoromethyl)-1H-pyrazole-4-carboxamide]
525 | N#Cc1cc(F)ccc1-n1ncc(C(=O)Nc2cnc(-n3nccn3)c(C#N)c2)c1C(F)(F)F [Cpd 135, 1-(2-cyano-4-fluorophenyl)-N-(5-cyano-6-(2H-1,2,3-triazol-2-yl)pyridin-3-yl)-5-(trifluoromethyl)-1H-pyrazole-4-carboxamide]
316 | Cc1nc(Cl)ccc1-n1ncc(C(=O)Nc2cnc(-n3nccn3)c(C#N)c2)c1C(F)(F)F [Cpd 95, 1-(6-chloro-2-methylpyridin-3-yl)-N-(5-cyano-6-(2H-1,2,3-triazol-2-yl)pyridin-3-yl)-5-(trifluoromethyl)-1H-pyrazole-4-carboxamide]
537 | Cc1ccnc(-n2ncc(C(=O)Nc3cnc(-n4nccn4)c(C#N)c3)c2C(F)(F)F)c1Cl [Cpd 47, 1-(3-chloro-4-methylpyridin-2-yl)-N-(5-cyano-6-(2H-1,2,3-triazol-2-yl)pyridin-3-yl)-5-(trifluoromethyl)-1H-pyrazole-4-carboxamide]
316 | Cc1ccc(F)cc1-n1ncc(C(=O)Nc2cnc(-n3nccn3)c(Cl)c2)c1C(F)(F)F [Cpd 96, N-(5-chloro-6-(2H-1,2,3-triazol-2-yl)pyridin-3-yl)-1-(5-fluoro-2-methylphenyl)-5-(trifluoromethyl)-1H-pyrazole-4-carboxamide]
3470 | O=C(Nc1cnc(-n2nccn2)c(Cl)c1)c1cnn(-c2cncnc2)c1C(F)(F)F [Cpd 15, N-(5-Chloro-6-(2H-1,2,3-triazol-2-yl)pyridin-3-yl)-1-(pyrimidin-5-yl)-5-(trifluoromethyl)-1H-pyrazole-4-carboxamide]
1550 | N#Cc1cc(-n2ncc(C(=O)Nc3cnc(-n4nccn4)c(C#N)c3)c2C(F)(F)F)ccc1F [Cpd 86, 1-(3-cyano-4-fluorophenyl)-N-(5-cyano-6-(2H-1,2,3-triazol-2-yl)pyridin-3-yl)-5-(trifluoromethyl)-1H-pyrazole-4-carboxamide]
1290 | Cc1cnc(N2CC(O)C2)cc1-n1ncc(C(=O)Nc2cnc(-n3nccn3)c(Cl)c2)c1C(F)(F)F [Cpd 156, N-(5-chloro-6-(2H-1,2,3-triazol-2-yl)pyridin-3-yl)-1-(2-(3-hydroxyazetidin-1-yl)-5-methylpyridin-4-yl)-5-(trifluoromethyl)-1H-pyrazole-4-carboxamide]
8130 | Cc1c(-n2ncc(C(=O)Nc3cnc(-n4nccn4)c(Cl)c3)c2C(F)(F)F)ccnc1N1CC(O)C1 [Cpd 157, N-(5-chloro-6-(2H-1,2,3-triazol-2-yl)pyridin-3-yl)-1-(2-(3-hydroxyazetidin-1-yl)-3-methylpyridin-4-yl)-5-(trifluoromethyl)-1H-pyrazole-4-carboxamide]
